Results from a compilation of properties of binary mixtures (doi:10.1080/00986445.2015.1114477).

Test: xn = mol fraction of the nth substance listed
Details: 100 kPa

CN1CCCC1=O + CCCCCCCCn1cc[n+](C)c1.[Cl-]
x1 = 1
Details	viscosity [mPa·s]
288.15 K	1.989
298.15 K	1.679
303.15 K	1.556
308.15 K	1.441
313.15 K	1.323
323.15 K	1.148
328.15 K	1.065
333.15 K	1.029

CN1CCN(C)C1=O + CCCCCCCCn1cc[n+](C)c1.[Cl-]
viscosity [mPa·s]
Details	288.15 K	293.15 K	298.15 K	303.15 K	308.15 K	313.15 K	318.15 K	323.15 K	328.15 K	333.15 K
x2 = 0	2.368	2.139	1.945	1.76	1.616	1.491	1.381	1.28	1.195	1.117
x2 = 0.105	7.99	6.88	5.98	5.25	4.64	4.14	3.72	3.36	–	2.78
x2 = 0.2056	29.6	24	19.66	–	14	11.99	10.25	8.93	7.84	6.92
x2 = 0.3018	–	67.9	53.2	42.4	34.3	28.2	23.45	19.75	16.69	14.54
x2 = 0.3991	217	–	118.5	90.5	70.8	56.4	45.7	37.5	–	26.3
x2 = 0.4964	–	420	295	–	170.9	–	–	–	63.2	51.6
x2 = 0.6016	1500	990	669	467	335	245	196	149.3	116	91.4
x2 = 0.7007	–	1973	1290	874	608	431	315	251	191	–
x2 = 0.7994	–	–	2473	1632	–	–	551	404	301	229

CN1CCCC1=O + CCCCCC[n+]1ccn(C)c1.[Cl-]
x1 = 1
Details	viscosity [mPa·s]
288.15 K	1.989
293.15 K	1.853
298.15 K	1.679
303.15 K	1.556
308.15 K	1.441
313.15 K	1.323
318.15 K	1.259
323.15 K	1.148
328.15 K	1.065
333.15 K	1.029

CN1CCN(C)C1=O + CCCCCC[n+]1ccn(C)c1.[Cl-]
viscosity [mPa·s]
Details	288.15 K	293.15 K	298.15 K	303.15 K	308.15 K	313.15 K	318.15 K	323.15 K	328.15 K	333.15 K
x2 = 0	–	2.139	1.945	1.76	–	1.491	1.381	1.28	–	1.117
x2 = 0.1007	–	5.49	4.82	4.26	3.8	3.41	3.08	–	2.55	2.337
x2 = 0.1999	18.72	15.59	13.12	–	–	7.42	6.47	5.7	5.07	4.54
x2 = 0.2985	49.9	39.2	31.2	25.4	20.72	17.34	14.87	–	11.09	–
x2 = 0.3856	124.2	92.5	71.6	55.9	–	35.7	29.2	24.3	20.29	17.2
x2 = 0.4985	301	214	155.5	116.4	88.9	69.2	54.9	–	37.1	29.9
x2 = 0.6069	707	477	332	241	185	138.5	106.2	82.7	64.8	52.5
x2 = 0.6969	1575	1029	694	478	338	246	–	137.9	106.7	83.8
x2 = 0.7981	–	2308	1473	978	666	468	335	247	184	141.2

CCCCCCCCn1cc[n+](C)c1.[Cl-] + CN1CCCC1=O
viscosity [mPa·s]
Details	288.15 K	293.15 K	298.15 K	303.15 K	308.15 K	313.15 K	318.15 K	323.15 K	328.15 K	333.15 K
x2 = 0.21	–	2103	1299	878	619	442	–	–	–	137.7
x2 = 0.3221	1176	–	–	384	279	208	156.4	120.6	94.4	76.3
x2 = 0.43	560	390	279	207	154.3	117.6	91.2	72	57.7	46.7
x2 = 0.5321	204	149.8	112.3	86.1	67.1	53.3	–	35.6	29.5	24.9
x2 = 0.6343	86	66.1	51.9	41.4	33.5	27.6	22.98	19	16.2	14.09
x2 = 0.7195	32.3	26.2	21.09	17.68	–	12.7	10.97	9.55	8.38	7.41
x2 = 0.8143	12.78	10.86	9.32	8.08	7.07	6.24	–	–	4.46	4.04
x2 = 0.9085	5.24	4.63	4.13	3.71	–	3.05	2.79	2.57	2.377	2.211

CCCCCC[n+]1ccn(C)c1.[Cl-] + CN1CCCC1=O
viscosity [mPa·s]
Details	288.15 K	293.15 K	298.15 K	303.15 K	308.15 K	313.15 K	318.15 K	323.15 K	328.15 K	333.15 K
x2 = 0.2211	2552	1609	–	699	–	342	247	186	140.1	109.4
x2 = 0.3181	1037	687	–	329	239	176	132.3	–	79.8	63.8
x2 = 0.4223	406	–	207	–	115.1	87.7	68.5	–	–	36.7
x2 = 0.5271	167.3	123.1	–	71.4	55.9	45.3	36.7	30.2	25.1	21.19
x2 = 0.6327	63.8	49.7	39.4	31.7	26	–	17.7	15.13	13.09	11.35
x2 = 0.718	29.2	23.7	–	16.08	–	–	10.04	8.75	–	6.77
x2 = 0.8139	11.44	9.86	–	7.37	–	5.71	5.08	4.55	4.07	3.68
x2 = 0.9083	4.69	4.16	3.72	3.35	3.04	–	2.55	2.353	2.185	–
